Measurements from PubChem BioAssay (NCI).
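Growth conditions: 96-well plates. Treatment: test compound, 48 hours, 5 concentrations. Analysis: linear interpolation between bracketing concentrations; unreached endpoints set to highest concentration. GI50 is the concentration that inhibits growth by half. TGI: concentration producing complete growth inhibition.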

Experiments:
Assay in all cases: NCI tumour cell line growth inhibition, 48 h
OVCAR-3 ovarian = system: OVCAR-3 ovarian
NCI-H23 lung = system: NCI-H23 lung
DU-145 prostate = system: DU-145 prostate
OVCAR-5 ovarian = system: OVCAR-5 ovarian
PC-3 prostate = system: PC-3 prostate
MDA-MB-435 = system: MDA-MB-435
MCF7 breast = system: MCF7 breast
M14 melanoma = system: M14 melanoma
NCI-H226 lung = system: NCI-H226 lung
SNB-19 CNS = system: SNB-19 CNS
LOX IMVI melanoma = system: LOX IMVI melanoma
786-0 renal = system: 786-0 renal
RXF 393 renal = system: RXF 393 renal
CCRF-CEM leukemia = system: CCRF-CEM leukemia
MOLT-4 leukemia = system: MOLT-4 leukemia
SN12C renal = system: SN12C renal

| SMILES | TGI (OVCAR-3 ovarian) | TGI (NCI-H23 lung) | TGI (DU-145 prostate) | TGI (OVCAR-5 ovarian) | TGI (PC-3 prostate) | TGI (MDA-MB-435) | TGI (MCF7 breast) | TGI (M14 melanoma) | TGI (NCI-H226 lung) | TGI (SNB-19 CNS) | TGI (LOX IMVI melanoma) | TGI (786-0 renal) | TGI (RXF 393 renal) | TGI (CCRF-CEM leukemia) | TGI (MOLT-4 leukemia) | TGI (SN12C renal) | GI50 (RXF 393 renal) |
| --- | --- | --- | --- | --- | --- | --- | --- | --- | --- | --- | --- | --- | --- | --- | --- | --- | --- |
| CO[C@H]1[C@@H](O)[C@@H](C)O[C@@H](O[C@H]2CC[C@@]3(C)[C@H](CC[C@@H]4[C@@H]3CC[C@]3(C)[C@@H](C5=CC(=O)OC5)[C@@H](OC(C)=O)C[C@]43O)C2)[C@@H]1O | 0.0905 µM | 0.139 µM | 0.0589 µM | 0.214 µM | 0.113 µM | 0.407 µM | > 50 µM | 0.189 µM | 0.411 µM | 0.507 µM | 0.194 µM | 0.067 µM | 0.0523 µM |  |  |  |  |
| O=C(C(=O)N1CCc2ccccc21)c1c[nH]c2ccccc12 | > 10 µM | > 10 µM | > 10 µM | > 10 µM | > 10 µM | > 10 µM | > 10 µM | > 10 µM | > 10 µM | > 10 µM | > 10 µM | > 10 µM | > 10 µM | > 10 µM | > 10 µM | > 10 µM |  |
| Cc1cn(C2CC(ON3C(=O)c4ccccc4C3=O)C(CO)O2)c(=O)[nH]c1=O (centres undefined) | > 10 µM | > 10 µM | > 10 µM | > 10 µM | > 10 µM | > 10 µM | > 10 µM | > 10 µM | > 10 µM | > 10 µM | > 10 µM | > 10 µM | > 10 µM | > 10 µM | > 10 µM | > 10 µM |  |
| N#CSc1nc[nH]c1C(N)=O | > 100 µM | > 100 µM | > 100 µM | > 100 µM | > 100 µM | > 100 µM | > 100 µM | > 100 µM | > 100 µM | > 100 µM | > 100 µM | 98.8 µM | > 100 µM | 14.4 µM |  | 90 µM |  |
| COC(CN(C(=O)c1ccccc1)C1CCC2(SCCS2)c2[nH]c3ccccc3c21)OC (centres undefined) | > 100 µM | > 100 µM | > 100 µM | > 100 µM | 77.1 µM | 70.2 µM | > 100 µM | > 100 µM | > 100 µM | > 100 µM | 6.67 µM | > 100 µM | > 100 µM | > 100 µM | > 100 µM | > 100 µM |  |
| COc1ccnc2c1C(=O)c1nc3ccccc3c3ccnc-2c13 | > 100 µM | 1.37 µM | 0.31 µM | 2.73 µM | 1.81 µM | 1.52 µM | 0.298 µM | 0.272 µM |  | 0.562 µM | 5.47 µM |  | 0.86 µM | 1.35 µM | 7.32 µM | 0.535 µM |  |
| CC(=O)N(C(=O)CC(=O)N/N=C\c1ccc(Br)c(N(CCC#N)CCC#N)c1)c1ccc(Cl)cc1 | > 100 µM | > 100 µM | > 100 µM | 55.9 µM | > 100 µM | > 100 µM | > 100 µM | > 100 µM | > 100 µM | > 100 µM | > 100 µM | > 100 µM | > 100 µM | > 100 µM | > 100 µM | > 100 µM |  |
| C[C@H]1[C@H](C)CC[C@]2(C)CC[C@]3(C)C(=C[C@@H](O)[C@@H]4[C@@]5(C)[C@H](O)[C@@H](O)[C@H](O)C(C)(C)[C@@H]5CC[C@]43C)[C@H]12 | > 100 µM | > 100 µM | > 100 µM | > 100 µM | > 100 µM | > 100 µM | > 100 µM | > 100 µM |  | > 100 µM | > 100 µM | > 100 µM | > 100 µM | > 100 µM | > 100 µM | > 100 µM | 0.361 µM |
| CN(C)C1=Nc2ccccc2C(=S)N2CSCC12 (centres undefined) | > 100 µM |  | > 100 µM | > 100 µM | > 100 µM | > 100 µM | > 100 µM | > 100 µM | > 100 µM | > 100 µM | > 100 µM | 62.2 µM | > 100 µM | 45.1 µM | 54.1 µM | > 100 µM |  |
| CCC1c2[nH]c3ccccc3c2C[C@H]2C(=O)NC(COC(C)(C)C)C(=O)N12 (some centres undefined) | > 100 µM | > 100 µM | > 100 µM | > 100 µM | 91.9 µM | > 100 µM | > 100 µM | > 100 µM | > 100 µM | > 100 µM | > 100 µM | > 100 µM | > 100 µM |  | 98.5 µM | > 100 µM |  |
| CCOC(=O)CC1CCN(C(=O)c2ccccc2)C2Cc3c([nH]c4ccccc34)C12C[N+](=O)[O-] (centres undefined) |  | > 100 µM | > 100 µM | > 100 µM | > 100 µM | > 100 µM | > 100 µM | > 100 µM | > 100 µM |  | > 100 µM |  | > 100 µM | 51.3 µM | > 100 µM | > 100 µM |  |
| COc1ccc(C[N+]23C(CC[C@H]2c2ccccc2)CC[C@H]3c2ccccc2)cc1 (some centres undefined) | 37 µM |  | 77.8 µM | > 100 µM | 92.1 µM | 26.4 µM | 78.9 µM | 42.4 µM | 55 µM | > 100 µM | 44.7 µM | > 100 µM | 35.3 µM | > 100 µM | 90.1 µM | > 100 µM |  |
| COc1cc(/C=C2\C[C@H]3[C@@H]4CC=C5C[C@@H](O)CC[C@]5(C)[C@H]4CC[C@]3(C)C2=O)cc(OC)c1OC | > 100 µM | > 100 µM | > 100 µM | > 100 µM | > 100 µM | > 100 µM | > 100 µM | 81.8 µM | > 100 µM | > 100 µM | 53.8 µM | 89.5 µM | 58 µM |  | 68.4 µM | > 100 µM |  |
| O=C1c2cc3c(cc2CC12Cc1cc4c(cc1C2=O)CCC4)CCCC3 (centres undefined) | > 100 µM | > 100 µM | > 100 µM | > 100 µM | > 100 µM | > 100 µM | > 100 µM | > 100 µM |  | > 100 µM | > 100 µM | > 100 µM | > 100 µM | > 100 µM | > 100 µM |  |  |
